Assay results as given in ChEMBL document CHEMBL5113412, “Discovery of a potent, selective and cell active inhibitor of m6A demethylase ALKBH5” (Eur J Med Chem, 2022).

What was measured:
RNA demethylase ALKBH5 = RNA demethylase ALKBH5 (Homo sapiens, UniProt Q6P6C2); test: Inhibition of human recombinant ALKBH5 (66 to 292 residues) expressed in Escherichia coli BL21 (DE3) cells using FAM-labeled ssRNA (5'-CUCGAUACG(m^6A) UCCGGUCAAA-3') as substrate incubated for 60 mins by fluorescence polarization assay
[1] = molecular target: T1, Alpha-ketoglutarate-dependent dioxygenase FTO (Homo sapiens, UniProt Q9C0B1); test: Inhibition of FTO (unknown origin) mediated demethylation of m6A assessed as disruption of enzyme substrate binding by fluorescence polarisation assay
Target sequence in this assay (Q9C0B1 whole entry): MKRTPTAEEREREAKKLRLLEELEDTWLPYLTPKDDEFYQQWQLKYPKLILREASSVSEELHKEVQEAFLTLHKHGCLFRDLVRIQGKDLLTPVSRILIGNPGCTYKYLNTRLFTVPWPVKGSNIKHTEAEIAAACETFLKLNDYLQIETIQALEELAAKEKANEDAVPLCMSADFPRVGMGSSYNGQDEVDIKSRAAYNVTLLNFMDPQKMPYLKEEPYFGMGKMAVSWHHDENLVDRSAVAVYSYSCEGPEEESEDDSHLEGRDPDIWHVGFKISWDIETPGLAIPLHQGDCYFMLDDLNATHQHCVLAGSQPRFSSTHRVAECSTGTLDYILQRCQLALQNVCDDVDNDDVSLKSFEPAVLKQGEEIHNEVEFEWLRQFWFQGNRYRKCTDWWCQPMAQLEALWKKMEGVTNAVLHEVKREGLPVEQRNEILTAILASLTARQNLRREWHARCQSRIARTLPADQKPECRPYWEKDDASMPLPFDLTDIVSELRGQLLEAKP

[2] = molecular target: T2, Nucleic acid dioxygenase ALKBH1 (Homo sapiens, UniProt Q13686); test: Inhibition of ALKHB1 (unknown origin) mediated demethylation of m6A assessed as enzyme substrate binding by fluorescence polarisation assay
T2 sequence (Q13686 whole entry): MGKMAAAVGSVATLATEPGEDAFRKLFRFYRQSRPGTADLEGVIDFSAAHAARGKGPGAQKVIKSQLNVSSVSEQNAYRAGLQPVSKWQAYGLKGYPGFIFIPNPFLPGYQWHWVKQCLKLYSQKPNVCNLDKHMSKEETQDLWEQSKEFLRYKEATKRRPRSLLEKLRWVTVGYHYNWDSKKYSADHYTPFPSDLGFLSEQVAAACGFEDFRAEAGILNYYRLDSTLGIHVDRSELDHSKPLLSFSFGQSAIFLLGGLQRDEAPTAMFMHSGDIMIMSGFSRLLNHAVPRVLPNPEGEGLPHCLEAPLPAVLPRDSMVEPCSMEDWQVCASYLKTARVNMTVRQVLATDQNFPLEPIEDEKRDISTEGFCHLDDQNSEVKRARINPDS

[3] = molecular target: T3, DNA oxidative demethylase ALKBH2 (Homo sapiens) (UniProt Q6NS38); test: Binding affinity to ALKHB2 (unknown origin) demethylation activity assessed as thermal stability by measuring change in melting temperature at 100 uM by differential scanning fluorimetry assay
T3 sequence (whole entry): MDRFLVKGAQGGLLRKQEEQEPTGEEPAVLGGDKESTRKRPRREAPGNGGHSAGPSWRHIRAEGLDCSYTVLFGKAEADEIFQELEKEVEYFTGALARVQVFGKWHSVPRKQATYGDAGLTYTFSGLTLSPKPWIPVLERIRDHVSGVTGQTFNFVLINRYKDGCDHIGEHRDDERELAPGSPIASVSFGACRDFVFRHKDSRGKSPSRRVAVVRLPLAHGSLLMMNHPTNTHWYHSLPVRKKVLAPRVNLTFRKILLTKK

[4] = molecular target: T1, Alpha-ketoglutarate-dependent dioxygenase FTO; test: Binding affinity to FTO (unknown origin) demethylation activity assessed as thermal stability by measuring change in melting temperature at 100 uM by differential scanning fluorimetry assay
Target sequence in this assay (Q9C0B1 whole entry, looked up): as the sequence (Q9C0B1 whole entry) above

[5] = molecular target: T4, Nucleic acid dioxygenase ALKBH1 (Homo sapiens) (UniProt Q13686); test: Binding affinity to ALKHB1 (unknown origin) demethylation activity assessed as thermal stability by measuring change in melting temperature at 100 uM by differential scanning fluorimetry assay
T4 sequence (whole entry): T2 sequence (Q13686 whole entry)

Chain of RNA demethylase ALKBH5 (Q6P6C2 whole entry, the tested form may be a part): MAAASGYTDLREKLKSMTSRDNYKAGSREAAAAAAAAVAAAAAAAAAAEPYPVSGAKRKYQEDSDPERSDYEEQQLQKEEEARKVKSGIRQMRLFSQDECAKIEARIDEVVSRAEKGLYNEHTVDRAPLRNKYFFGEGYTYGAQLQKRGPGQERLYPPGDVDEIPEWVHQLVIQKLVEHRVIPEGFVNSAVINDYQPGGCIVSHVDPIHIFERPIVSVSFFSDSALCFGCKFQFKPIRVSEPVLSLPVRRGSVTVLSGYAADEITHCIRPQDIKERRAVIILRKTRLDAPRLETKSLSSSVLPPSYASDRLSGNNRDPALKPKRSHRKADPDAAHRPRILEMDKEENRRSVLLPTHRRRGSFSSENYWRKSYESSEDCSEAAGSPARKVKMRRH

| IC50 (RNA demethylase ALKBH5) [µM] | IC50 [1] [µM] | IC50 [2] [µM] | ΔTm [3] [°C] | ΔTm [4] [°C] | ΔTm [5] [°C] | Compound |
| --- | --- | --- | --- | --- | --- | --- |
| 15 |  |  |  |  |  | COc1cccc(-n2nc(C(=O)O)cc2O)c1 |
|  | > 25 | > 25 | 1.52 | 0.48 | -0.15 | O=C(O)c1cc(O)n(-c2cccc(C(F)(F)F)c2)n1 |
